In data set [1] the test system is HDFn cells. Nature of the data set: mtDNA damage after UV irradiation (1 kb real-time qPCR assay). It counts as cell-based, human. The following applies: UV 2 SED. On the procedure:
1,000 μg/ml solutions of mangiferin extract were prepared as outlined in Example 1 above. 3 ml of the mangiferin solution was added to a 45 mm diameter quartz glass petri dish. Quartz was chosen as it is known to permit both UVA and UVB rays to pass through. The quartz glass dish was then placed on top of a slightly smaller dish containing the cultured HDFn cells. The cells were then irradiated through the quartz glass petri dish, using either a Cleo Performance (iSOLde, Germany) or Aramid B (Cosmedico, Germany) lamp at 2 standard erythemal doses (SED). […]
Following irradiation, total DNA was extracted and mtDNA damage analysed using a 1 kb real-time qPCR assay. mtDNA damage is expressed as a Ct value (where a 1 Ct difference is equivalent to a 2-fold difference in damage), and is based on the observation that damaged mtDNA takes longer to be amplified via qPCR. To find the acellular UV transmission of extracts, the dish containing the diluted extract was placed on top of a spectroradiometer and the amount of UV which passes through the dish was measured. All statistical differences were determined using one-way ANOVA with Dunnett's test to compare to a control column (0.05*, P<0.01**, P<0.001***). […]
In general terms: In qPCR the cycle at which signal appears reflects the starting amount.

The next data set is described as follows: UV absorbance scan. To be noted: 1,000 μg/ml, quartz cell. It counts as physicochemical. The method, then:
A UV absorbance scan was performed on mangiferin extract at a concentration of 1,000 μg/ml, and the results are shown in FIG. 6. The spectrometer was set up using a quartz cell with a 1.05 ms integration time (the minimum for the spectrometer) and the spectra was based on an average of 100 samples.
UV absorbance scans were performed on stock solutions of the mangiferin-complexes prepared in example 8 above and the results are shown in FIG. 7. The spectrometer was set up using a quartz cell with a 1.05 ms integration time (the minimum for the spectrometer) and the spectra was based on an average of 100 samples. The mangiferin-only solution required to be diluted to 25% of its original concentration to reach the point at which it no longer saturated the spectrometer, while mangiferin-complex solutions were diluted to 2.5%. However, good absorbance was then observed for all of the samples, with the characteristic peaks at ^˜320 nm and ^˜370 nm clearly visible.

Data set [2] is described as follows: Solubility of mangiferin in deionised water. The format is physicochemical. The method, then:
In order to assess the solubility of mangiferin in aqueous solution, 0.18 g of mangiferin was added to 100 mls of deionised water. […] The solution was then Buchner filtered, and the mass of the undissolved material weighed. Solubility was calculated based on the difference between the initial mass of mangiferin and that of the undissolved material.

In data set [3] the test system is HDFn cells. Nature of the data set: Cell viability assay (MTS cell proliferation assay). The format is cell-based. To be noted: unfiltered extract, 50 to 50,000 μg/ml, 24 hours incubation. On the procedure:
Stock solutions of mangiferin were made by dissolving mangiferin extract in water, and diluting to the required concentration. The stock solutions were then added to HDFn cells at a range of concentrations from 50 μg/ml to 50,000 μg/ml, and incubated for 24 hours under standard culture conditions.

Converted amounts (≈) assume the structure as drawn. “And” between values parts separate entries of the source, which are not always exact repeats. Equal values may be shown once.

One may read the solubility as the concentration that dissolves in the medium under given conditions. High values mean much dissolved substance, low ones little dissolved substance. For the molecule `O=c1c2cc(O)c(O)cc2oc2cc(O)c(C3OC(CO)C(O)C(O)C3O)c(O)c12` (stereo not shown) [mangiferin, 1,3,6,7-tetrahydroxy-2-[3,4,5-trihydroxy-6-(hydroxymethyl)oxan-2-yl]xanthen-9-one], in the data set with HDFn cells [1] (1,000 μg/ml solution in quartz dish above cells, water control 3.1 Cts), the “increase in mtDNA damage compared with foil-wrapped (non-irradiated) samples” value is 1.6 Cts. Besides, in the data set on HDFn cells [1] (1,000 μg/ml, 1 Ct = 2-fold, water control approximately 8-fold), the “fold increase in mtDNA damage compared with foil-wrapped samples” value is on record as “approximately 3 fold”. Moreover, the UV absorbance peaks in “UV absorbance scan” is ~320 nm and ~370 nm. Further, in data set [2] (even after stirring for 24 hours), the “solubility in water (in words)” value is listed as “very insoluble in water”. This molecule also registered a solubility at 4 h in data set [2] (thermodynamic from solid, deionised water, 40° C., 500 rpm, stirring time 4 hours) of 43 µg/mL (≈ 102 µM). Besides, the solubility at 24 h in data set [2] (thermodynamic from solid, deionised water, 40° C., 500 rpm, stirring time 24 hours) was 139 µg/mL (≈ 329 µM). For the same molecule, in the data set on HDFn cells [3], the “concentration up to which cell viability is seen (cell death above)” value is ~5,000 μg/ml.
